The text below walks through data of patent publication US10414759B2, “Phenylthiazoles and uses thereof” (Purdue Research Foundation, priority 2017, dated 2019).

In one series the test system is MRSA (2658 RCMB). In words: MIC against MRSA (2658 RCMB), broth dilution. The series is classed as cell-based, Staphylococcus aureus. The following applies: for MIC: Staphylococcus aureus. The protocol: Bacteria were cultured in cation-adjusted Mueller Hinton broth in a 96-well plate. Compounds, using triplicate samples, were added to the plate and serially diluted. […] Plates were visually inspected and the MIC was categorized as the concentration at which no visible growth of bacteria was observed. The average of triplicate MIC determinations is reported.
A bacterial solution equivalent to 0.5 McFarland standard was prepared and diluted in cation-adjusted Mueller-Hinton broth (CAMHB) to achieve a bacterial concentration of about 5×10^5 CFU/mL and seeded in 96-well plates. Enterococcus faecium was diluted in brain heart infusion broth. Enterococcus faecalis, Streptococcus pneumonia and Listeria monocytogenes were diluted in tryptone soya broth (TSB).
A general note: Dilution methods test growth across graded concentrations, often in twofold steps.

Where [1] appears, read: Table 1, MRSA (2658 RCMB), read-out: MIC ± SD.
Where [2] appears, read: Table 7, initial screening, MRSA (2658 RCMB), read-out: minimum inhibitory concentration (MIC).
Setting [3] is: Table 7, initial screening, MRSA (2658 RCMB).

One may read the melting point as the temperature of the solid-liquid transition.

Structures are written as SMILES. In brackets after ≈: the same amount, converted by molar mass. Read-outs that look alike come from different tables or passages of the source. Some results are limits rather than exact numbers.

The molecule `CCCCc1ccc(-c2nc(C)c(C(=O)/C=C/N(C)C)s2)cc1` [Compound 4, (E)-1-[2-(4-Butylphenyl)-4-methylthiazol-5-yl]-3-(dimethyl-amino)prop-2-en-1-one] showed a melting point of 105.4 °C. Further, in the series with MRSA (2658 RCMB) (setting [1]), the MIC was greater than 25 µg/mL.
`CCCCc1ccc(-c2nc(C)c(-c3ccnc(NC)n3)s2)cc1` [Compound 9, 4-[2-(4-Butylphenyl)-4-methylthiazol-5-yl]-N-methylpyrimidin-2-amine]: the melting point is 227 °C (dec.). In addition, the MIC with MRSA (2658 RCMB) (setting [1]) is greater than 25 µg/mL. In the series with MRSA (2658 RCMB) (Table 1), the “antibacterial (anti-MRSA) activity, in words” value (“antibacterial” below) is given as “dramatically decreased the antibacterial activity”.
In the same order, the values of `CCCCc1ccc(-c2nc(C)c(-c3ccnc(NC#N)n3)s2)cc1` [Compound 10, N-{4-[2-(4-Butylphenyl)-4-methylthiazol-5-yl]pyrimidin-2-yl}cyanamide] are 118 °C, 18.7 ± 2.3 µg/mL (≈ 53.5 µM) and “dramatically decreased the antibacterial activity”.
On to `CCCCc1ccc(-c2nc(C)c(-c3ccnc(NC(N)=S)n3)s2)cc1` [Compound 12, 1-{4-[2-(4-Butylphenyl)-4-methylthiazol-5-yl]pyrimidin-2-yl}thiourea], for which the melting point was 212 °C (dec.). In addition, in the series with MRSA (2658 RCMB) (MRSA, read-out: MIC ± SD), the MIC was greater than 25 µg/mL. In addition, the “antibacterial” value in the series with MRSA (2658 RCMB) (Table 1) is reported as “complete abolishment of the anti-MRSA activity”.
With `CCCCc1ccc(-c2nc(C)c(-c3ccnc(-c4cccnc4)n3)s2)cc1` [Compound 13, 2-(4-Butylphenyl)-4-methyl-5-[2-(38yridine-3-yl)pyrimidin-4-yl]thiazole], the “antibacterial” value with MRSA (2658 RCMB) (Table 1) was “exhibited no antibacterial activity”. Also, in the series with MRSA (2658 RCMB) (Table 1, MRSA (2658 RCMB)), the “MIC ± SD” value was 17.2 ± 0.4 µg/mL (≈ 44.5 µM).
As for `CCCCc1ccc(-c2nc(C)c(-c3ccnc(-n4cccn4)n3)s2)cc1` [Compound 14, 2-(4-Butylphenyl)-5-[2-(1H-pyrazol-1-yl)pyrimidin-4-yl]-4-methylthiazole], the melting point was found to be 163.7 °C. In the series on MRSA (2658 RCMB) (setting [1]), the MIC is greater than 25 µg/mL. For the same molecule, the “antibacterial” value with MRSA (2658 RCMB) (Table 1) is recorded as “exhibited no antibacterial activity”.
In the same order, the values of `CCCCc1ccc(-c2nc(C)c(-c3ccnc(N4CCCC4)n3)s2)cc1` [Compound 15, 2-(4-Butylphenyl)-4-methyl-5-(2-(pyrrolidin-1-yl)pyrimidin-4-yl)thiazole] are 153.7 °C, greater than 25 µg/mL and “lacks any antibacterial activity”.
Consider `CCCCc1ccc(-c2nc(C)c(-c3ccn4ncnc4n3)s2)cc1` [Compound 16, 5-([1,2,4]Triazolo[1,5-a]pyrimidin-5-yl)-2-(4-butylphenyl)-4-methylthiazole], for which the MIC in the series on MRSA (2658 RCMB) (setting [1]) was greater than 25 µg/mL.
As for `CCCCc1ccc(-c2nc(C)c(-c3ccnc(NC(=N)N)n3)s2)cc1` [Compound 18, 2-(4-Butylphenyl)-5-(2-guanidinylpyrimidin-4-yl)-4-methylthiazole], in the series with MRSA (2658 RCMB) (setting [1]), the MIC is 1.56 µg/mL (≈ 4.26 µM). Besides, the “MIC ± SD” value in the series with MRSA (2658 RCMB) (Table 1, MRSA (2658 RCMB)) is 1.56 ± 0.10 µg/mL (≈ 4.26 µM).
`CCCCc1ccc(-c2nc(C)c(-c3ccnc(N=C(N(C)C)N(C)C)n3)s2)cc1` [Compound 19, 2-{4-[42-(4-Butylphenyl)-4-methylthiazol-5-yl]pyrimidin-2-yl}-1,1,3,3-tetramethyl guanidine]: the “antibacterial” value in the series with MRSA (2658 RCMB) (Table 1) is reported as “revealed no antibacterial efficacy”. For the same molecule, the “MIC ± SD” value in the series with MRSA (2658 RCMB) (Table 1, MRSA (2658 RCMB)) was greater than 25 µg/mL.
For `Cc1nc(-c2ccc(I)cc2)sc1-c1ccnc(N)n1` [Compound 23, 4-[2-(4-Iodophenyl)-4-methylthiazol-5-yl]pyrimidin-2-amine], the MIC with MRSA (2658 RCMB) (setting [1]) is greater than 25 µg/mL.
`Cc1nc(-c2ccc(C3=CCC(C)C3)cc2)sc1-c1ccnc(N)n1` (centres unmarked) [Compound 28, 4-{4-Methyl-2-[4-(4-methylcyclopent-1-en-1-yl)phenyl]thiazol-5-yl}pyrimidin-2-amine] came in with a melting point of 141 °C. In addition, the MIC in the series with MRSA (2658 RCMB) (setting [1]) was found to be 3.8 ± 0.4 µg/mL (≈ 10.9 µM).
For the molecule `Cc1nc(-c2ccc(C3=CCCCCC3)cc2)sc1-c1ccnc(N)n1` [Compound 30, 4-{2-[4-(Cyclohept-1-en-1-yl)phenyl]-4-methylthiazol-5-yl}pyrimidin-2-amine], the melting point stood at 164 °C. Also, the MIC in the series on MRSA (2658 RCMB) (setting [1]) came to 3.12 µg/mL (≈ 8.61 µM).
On the same counts, the results for `Cc1nc(-c2ccc(C3=CCCCCCC3)cc2)sc1-c1ccnc(N)n1` [Compound 31, 4-{2-[4-(Cyclooct-1-en-1-yl)phenyl]-4-methylthiazol-5-yl}pyrimidin-2-amine] are 188 °C and 5.6 ± 0.1 µg/mL (≈ 14.9 µM).
On the same counts, the results for `Cc1nc(-c2ccc(C=C3CCCC3)cc2)sc1-c1ccnc(N)n1` [Compound 32, 4-{2-[4-(Cyclopentylidenemethyl)phenyl]-4-methylthiazol-5-yl}pyrimidin-2-amine] are 143 °C and 1.17 ± 0.19 µg/mL (≈ 3.36 µM).
As to `Cc1nc(-c2ccc(C=C3CCCCC3)cc2)sc1-c1ccnc(N)n1` [Compound 33, 4-{2-[4-(Cyclohexylidenemethyl)phenyl]-4-methylthiazol-5-yl}pyrimidin-2-amine], the melting point came to 165 °C. The MIC in the series with MRSA (2658 RCMB) (MRSA, read-out: MIC ± SD) is 1.56 µg/mL (≈ 4.3 µM).
`Cc1nc(-c2ccc(/C=C/C3CCCC3)cc2)sc1-c1ccnc(N)n1` [Compound 34, (E)-4-{2-[4-(2-Cyclopentylvinyl)phenyl]-4-methylthiazol-5-yl}pyrimidin-2-amine] returned a melting point of 180.7 °C. Besides, the MIC in the series with MRSA (2658 RCMB) (setting [1]) is 3.12 µg/mL (≈ 8.61 µM).
For `Cc1nc(-c2ccc(/C=C/C3CCCCC3)cc2)sc1-c1ccnc(N)n1` [Compound 35, (E)-4-{2-[4-(2-Cyclohexylvinyl)phenyl]-4-methylthiazol-5-yl}pyrimidin-2-amine], the melting point turned out to be 189 °C. For the same molecule, in the series with MRSA (2658 RCMB) (setting [1]), the MIC stood at 3.12 µg/mL (≈ 8.29 µM).
As for `Cc1nc(-c2ccc(C(C)(C)C)cc2)sc1-c1ccnc(N)n1` [Compound 40, 4-(2-(4-(tert-Butyl)phenyl)-4-methylthiazol-5-yl)pyrimidin-2-amine], the MIC in the series with MRSA (2658 RCMB) (setting [2]) came out at 6.25 µg/mL (≈ 19.3 µM).
Take `CNc1nccc(-c2sc(-c3ccc(C(C)(C)C)cc3)nc2C)n1` [Compound 41, 4-(2-(4-(tert-Butyl)phenyl)-4-methylthiazol-5-yl)-N-methylpyrimidin-2-amine]: in the series with MRSA (2658 RCMB) (setting [2]), the MIC worked out at 25 µg/mL (≈ 73.9 µM).
Regarding `Cc1nc(-c2ccc(C(C)(C)C)cc2)sc1-c1ccnc(N2CCCC2)n1` [Compound 42], in the series on MRSA (2658 RCMB) (setting [3]), the “minimum inhibitory concentration (MIC)” value is greater than 50 µg/mL.
Consider `Cc1nc(-c2ccc(C(C)(C)C)cc2)sc1-c1ccnc(-c2cccnc2)n1` [Compound 43, 2-(4-(tert-Butyl)phenyl)-4-methyl-5-(2-(pyridin-3-yl)pyrimidin-4-yl)thiazole], for which the MIC with MRSA (2658 RCMB) (setting [2]) is greater than 50 µg/mL.
On the same count and under the same terms, for `Cc1nc(-c2ccc(C(C)(C)C)cc2)sc1-c1ccnc(N(C)C)n1` [Compound 50, 4-(2-(4-(tert-Butyl)phenyl)-4-methylthiazol-5-yl)-N,N-dimethylpyrimidin-2-amine] the value was greater than 50 µg/mL.
On the same count and under the same terms, for `Cc1nc(-c2ccc(C(C)(C)C)cc2)sc1-c1ccnc(N2CCC2)n1` [Compound 51, 5-(2-(Azetidin-1-yl)pyrimidin-4-yl)-2-(4-(tert-butyl)phenyl)-4-methylthiazole] the value was greater than 50 µg/mL; for `Cc1nc(-c2ccc(C(C)(C)C)cc2)sc1-c1ccnc(N2CCOCC2)n1` [Compound 52, 4-(4-(2-(4-(tert-Butyl)phenyl)-4-methylthiazol-5-yl)pyrimidin-2-yl) morpholine], 25 µg/mL (≈ 63.4 µM).
Still for that read-out and setting: as for `Cc1nc(-c2ccc(C(C)(C)C)cc2)sc1-c1ccnc(N2CC(O)C2)n1` [Compound 53, 1-(4-(2-(4-(tert-Butyl)phenyl)-4-methylthiazol-5-yl)pyrimidin-2-yl)azetidin-3-ol], the figure is 6.25 µg/mL (≈ 16.4 µM); as for `Cc1nc(-c2ccc(C(C)(C)C)cc2)sc1-c1ccnc(NN)n1` [Compound 55, 2-(4-(tert-Butyl)phenyl)-5-(2-hydrazinylpyrimidin-4-yl)-4-methylthiazole], 1.56 µg/mL (≈ 4.6 µM); as for `Cc1nc(-c2ccc(C(C)(C)C)cc2)sc1-c1ccnc(NC(=N)N)n1` [Compound 56, 1-(4-(2-(4-(tert-Butyl)phenyl)-4-methylthiazol-5-yl)pyrimidin-2-yl)guanidine], 1.56 µg/mL (≈ 4.26 µM).
For the molecule `CNC(=N)Nc1nccc(-c2sc(-c3ccc(C(C)(C)C)cc3)nc2C)n1` [Compound 57, 1-(4-(2-(4-(tert-Butyl)phenyl)-4-methylthiazol-5-yl)pyrimidin-2-yl)-3-methylguanidine], the MIC in the series with MRSA (2658 RCMB) (setting [2]) is 1.56 µg/mL (≈ 4.1 µM).
As for `Cc1nc(-c2ccc(C(C)(C)C)cc2)sc1-c1ccnc(N=C(N(C)C)N(C)C)n1` [Compound 59, N-2-(4-(2-(4-(tert-Butyl)phenyl)-4-methylthiazol-5-yl)pyrimidin-2-yl)-1,1,3,3-tetramethylguanidine], in the series with MRSA (2658 RCMB) (setting [3]), the “minimum inhibitory concentration (MIC)” value is greater than 50 µg/mL.
On to `Cc1nc(-c2ccc(C(C)(C)C)cc2)sc1-c1ccnc(NC(=N)N2CCCC2)n1` [Compound 60, N-(4-(2-(4-(tert-Butyl)phenyl)-4-methylthiazol-5-yl)pyrimidin-2-yl) pyrrolidine-1-carboximidamide], for which the MIC in the series on MRSA (2658 RCMB) (setting [2]) is 50 µg/mL (≈ 119 µM).
For the molecule `Cc1nc(-c2ccc(C(C)(C)C)cc2)sc1-c1ccnc(NC(=N)N2CCN(C)CC2)n1` [Compound 62, N-(4-(2-(4-(tert-Butyl)phenyl)-4-methylthiazol-5-yl)pyrimidin-2-yl)-4-methylpiperazine-1-carboximidamide], in the series with MRSA (2658 RCMB) (setting [2]), the MIC was 3.12 µg/mL (≈ 6.94 µM).
